Data set [1] deals with T1, Dopamine beta-hydroxylase (Bos taurus) (UniProt P15101).
T1 sequence (whole entry): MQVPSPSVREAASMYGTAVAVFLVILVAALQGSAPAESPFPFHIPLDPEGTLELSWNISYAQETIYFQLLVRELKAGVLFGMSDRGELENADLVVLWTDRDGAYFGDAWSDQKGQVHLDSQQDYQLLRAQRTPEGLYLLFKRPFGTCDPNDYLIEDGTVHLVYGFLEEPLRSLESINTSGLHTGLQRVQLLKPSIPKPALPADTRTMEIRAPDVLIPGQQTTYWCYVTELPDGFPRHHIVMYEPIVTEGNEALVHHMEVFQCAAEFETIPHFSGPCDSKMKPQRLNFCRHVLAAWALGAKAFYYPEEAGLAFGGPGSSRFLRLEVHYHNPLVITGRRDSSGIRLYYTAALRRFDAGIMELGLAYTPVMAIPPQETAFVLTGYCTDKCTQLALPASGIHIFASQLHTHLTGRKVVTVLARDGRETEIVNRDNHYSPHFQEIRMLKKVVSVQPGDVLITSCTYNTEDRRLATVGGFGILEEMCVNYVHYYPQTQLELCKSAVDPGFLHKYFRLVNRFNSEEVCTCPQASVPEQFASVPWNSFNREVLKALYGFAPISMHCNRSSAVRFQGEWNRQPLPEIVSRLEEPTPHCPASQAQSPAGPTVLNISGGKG
Nature of the data set: Inhibition of bovine adrenal dopamine beta-hydroxylase assessed as norepinephrine formation per mg of protein at 0.2 mM after 45 mins.

In data set [2] the test system is Rattus norvegicus. Briefly: Inhibition of dopamine beta-hydroxylase in Sprague-Dawley rat assessed as decrease in brain norepinephrine level at 50 mg/kg, ip after 6 hrs by liquid chromatography (RVb=0.206+/-0.022). It is filed as functional. To be noted: route intraperitoneal.
Data set [3] deals with Rattus norvegicus. Nature of the data set: Inhibition of dopamine beta-hydroxylase in Sprague-Dawley rat assessed as decrease in brain norepinephrine level at 50 mg/kg, ip after 1 hr by liquid chromatography (RVb=0.222+/-0.069). It is filed as functional. The note with it: route intraperitoneal.
In data set [4] the test system is Rattus norvegicus. Briefly: Inhibition of dopamine beta-hydroxylase in Sprague-Dawley rat assessed as decrease in brain norepinephrine level at 50 mg/kg, ip after 2.5 hrs by liquid chromatography (RVb=0.216+/-0.025). Type of data set: functional. To be noted: route intraperitoneal.
Data set [5] has as its target T1, Dopamine beta-hydroxylase (Bos taurus). Briefly: Inhibition of bovine adrenal dopamine beta-hydroxylase assessed as norepinephrine formation per mg of protein at 0.1 mM after 45 mins.
Data set [6] is described as follows: Drug level in Sprague-Dawley rat brain at 50 mg/kg, ip after 4 hrs. Type of data set: ADME, organism-based. Set-up: dose 50 mg/kg, route intraperitoneal. To be noted: read-out: Drug uptake.
Data set [7] has as its system Rattus norvegicus. Briefly: Inhibition of dopamine beta-hydroxylase in Sprague-Dawley rat assessed as increase in cardiac dopamine level at 50 mg/kg, ip after 4 hrs by liquid chromatography (RVb=0.023+/-0.005). It is filed as functional. To be noted: route intraperitoneal.
In data set [8] the test system is Rattus norvegicus. Nature of the data set: Inhibition of dopamine beta-hydroxylase in Sprague-Dawley rat assessed as increase in adrenal dopamine level at 50 mg/kg, ip after 4 hrs by liquid chromatography (RVb=5.9+/-1.0). Type of data set: functional. To be noted: route intraperitoneal.
The target of data set [9] is T1, Dopamine beta-hydroxylase (Bos taurus). Briefly: Inhibition of bovine adrenal dopamine beta-hydroxylase at 0.2 mM.
A short description of data set [10]: Drug level in Sprague-Dawley rat heart at 50 mg/kg, ip after 4 hrs. It is filed as ADME, organism-based. Set-up: dose 50 mg/kg, route intraperitoneal. To be noted: read-out: Drug uptake.
The target in data set [11] is T1, Dopamine beta-hydroxylase (Bos taurus). Nature of the data set: Inhibition of bovine adrenal dopamine beta-hydroxylase at 0.1 mM.

Molecules are shown by their SMILES.

A word on the inhibition: it is the drop in the measured response relative to a control, in per cent. A low value points to little suppression.

As to `Cn1ccnc1S` [METHIMAZOLE], the Activity in [1] stood at 53 nmol; in the data set on Rattus norvegicus [2] it was 0.076 µg/g; in the data set with Rattus norvegicus [3], 0.216 µg/g; in the data set on Rattus norvegicus [4], 0.143 µg/g.
For `C=C[C@@H]1CNC(=S)O1`, the Activity in data set [5] was 62 nmol.
Regarding `C=CC1CNC(=S)O1` (stereo unspecified), the concentration at 4 h in data set [6] came to 21000 ng/g; in [10], 22300 ng/g. In addition, the Activity in the data set on Rattus norvegicus [7] came to 0.071 µg/g; in data set [1], 49 nmol; with Rattus norvegicus [8] it was 10 µg/g; in data set [5], 77 nmol; in the data set with Rattus norvegicus [2], 0.092 µg/g; in the data set with Rattus norvegicus [3], 0.249 µg/g. The Activity with Rattus norvegicus [4] was 0.158 µg/g. Besides, the inhibition in data set [9] came to 78%; in data set [11] it was 55%.

The record behind these values is ChEMBL document CHEMBL1151107, “Inhibition of dopamine beta-hydroxylase by goitrin, a natural antithyroid compound” (J Nat Prod, 1988).
